Measured values reported in the supplement of paper PMC11208160.

Test: recombinant UMI read abundance after kanamycin selection (control-corrected) (log10(CPM+1)); higher = more efficient recombination; extreme values may be limits of the assay; sequences stand for … in AGTGCAGAGAAAATCGGCCAGTTTTCTCTGCCTGCAGTCCGCATGCCGTGGGACCCCTTGGGTTCTAACCTGTTGCCTAGATTTATGCAGCGGACTGCCTTTCTCCCAAAGTGATAAACCGG…AGGTTGGTTTCACT; site = the 11-nt donor
Outline: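 Sequenced counts of recombinant UMIs were turned into CPM, averaged across replicates and scaled with control-derived factors. The reported figure is log10(CPM+1). Those UMIs, each 12 nt long, tagged donor and donor-binding-loop pairs on a plasmid with a promoterless kanamycin gene, screened as a pool in Escherichia coli with IPTG (0.07 mM) plus kanamycin or without selection.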
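Note: IS621 bridge recombinase in Escherichia coli cells against a fixed T5 target plasmid.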

Sequence	recombinant UMI read abundance (log10)
GTAGTATCATGGACCGGTTTTCCCGGTAATCCGTATTTGAT (site CTAGTATCTGT)	1.05
GTAGTATCATGGACCGGTTTTCCCGGTAATCCGTATTTGAT (site GTAGTATCTAT)	3.08
GTAGTGGCATGGACCGGTTTTCCCGGTAATCCGTATTTGGT (site GAAGTGGCTAC)	0.458
GTAGTGGCATGGACCGGTTTTCCCGGTAATCCGTATTTGGT (site GCAGTGGCTAC)	0.771
GTAGTGGCATGGACCGGTTTTCCCGGTAATCCGTATTTGGT (site GGAGTGGCTAC)	0.028
GTAGTGGCATGGACCGGTTTTCCCGGTAATCCGTATTTGGT (site GTAGTGGCTAC)	1.85
GTAGTGTCATGGACCGGTTTTCCCGGTAATCCGTATTTGAC (site CTAGTATCTGT)	2.03
GTAGTGTCATGGACCGGTTTTCCCGGTAATCCGTATTTGAC (site GTAGTGTCTGT)	3.23
GTAGTTTCATGGACCGGTTTTCCCGGTAATCCGTATTTGTA (site GTAGTTTCTTA)	2.61
GTATGCACATGGACCGGTTTTCCCGGTAATCCGTATTTGCA (site GTATGCACTTA)	0.546
GTATGCACATGGACCGGTTTTCCCGGTAATCCGTATTTGCA (site GTATGCACTTC)	0.0124
GTATGCACATGGACCGGTTTTCCCGGTAATCCGTATTTGCA (site GTATGCACTTG)	2.67
GTATGCACATGGACCGGTTTTCCCGGTAATCCGTATTTGCA (site GTATGCACTTT)	0.427
GTATGCACATGGACCGGTTTTCCCGGTAATCCGTATTTGTA (site ATATGCACTTA)	0.664
GTATGCACATGGACCGGTTTTCCCGGTAATCCGTATTTGTA (site CTATGCACTTA)	0.712
GTATGCACATGGACCGGTTTTCCCGGTAATCCGTATTTGTA (site GAATGCACTTA)	0.0229

Sequence	recombinant UMI read abundance (log10)
GTATGCACATGGACCGGTTTTCCCGGTAATCCGTATTTGTA (site GCATGCACTTA)	0.671
GTATGCACATGGACCGGTTTTCCCGGTAATCCGTATTTGTA (site GGATGCACTTA)	0.58
GTATGCACATGGACCGGTTTTCCCGGTAATCCGTATTTGTA (site GTAAGCACTTA)	0.776
GTATGCACATGGACCGGTTTTCCCGGTAATCCGTATTTGTA (site GTACGCACTTA)	1.72
GTATGCACATGGACCGGTTTTCCCGGTAATCCGTATTTGTA (site GTAGGCACTTA)	0.461
GTATGCACATGGACCGGTTTTCCCGGTAATCCGTATTTGTA (site GTATACACTTA)	2.07
GTATGCACATGGACCGGTTTTCCCGGTAATCCGTATTTGTA (site GTATCCACTTA)	0.28
GTATGCACATGGACCGGTTTTCCCGGTAATCCGTATTTGTA (site GTATGAACTTA)	0.66
GTATGCACATGGACCGGTTTTCCCGGTAATCCGTATTTGTA (site GTATGCACTAA)	0.126
GTATGCACATGGACCGGTTTTCCCGGTAATCCGTATTTGTA (site GTATGCACTCA)	0.0356
GTATGCACATGGACCGGTTTTCCCGGTAATCCGTATTTGTA (site GTATGCACTGA)	1.72
GTATGCACATGGACCGGTTTTCCCGGTAATCCGTATTTGTA (site GTATGCACTTA)	2.07
GTATGCACATGGACCGGTTTTCCCGGTAATCCGTATTTGTA (site GTATGCACTTC)	0.0256
GTATGCACATGGACCGGTTTTCCCGGTAATCCGTATTTGTA (site GTATGCACTTG)	1.71
GTATGCACATGGACCGGTTTTCCCGGTAATCCGTATTTGTA (site GTATGCACTTT)	0.44
GTATGCACATGGACCGGTTTTCCCGGTAATCCGTATTTGTA (site GTATGCCCTTA)	0.0248
